Assay results from ChEMBL document CHEMBL3991601, “The target landscape of clinical kinase drugs” (Science, 2017).
Calls of active or inactive are those of the source.

Legend:
[1] = molecular target: Casein kinase I isoform delta (Homo sapiens, UniProt P48730)
[2] = molecular target: S-adenosylmethionine synthase isoform type-2 (Homo sapiens, UniProt P31153)
[3] = molecular target: Interleukin-1 receptor-associated kinase 1 (Homo sapiens, UniProt P51617)
[4] = molecular target: Ras-related protein Rab-6A (Homo sapiens, UniProt P20340)
[5] = molecular target: Mitogen-activated protein kinase 9 (Homo sapiens, UniProt P45984)
[6] = molecular target: Myosin light chain kinase, smooth muscle (Homo sapiens, UniProt Q15746)
[7] = molecular target: Non-receptor tyrosine-protein kinase TYK2 (Homo sapiens, UniProt P29597)
[8] = molecular target: Serine/threonine-protein kinase SIK2 (Homo sapiens, UniProt Q9H0K1)
[9] = molecular target: Glycogen synthase kinase-3 beta (Homo sapiens, UniProt P49841)
[10] = molecular target: Inosine-5'-monophosphate dehydrogenase 2 (Homo sapiens, UniProt P12268)
[11] = molecular target: ATP-dependent RNA helicase DDX3X (Homo sapiens, UniProt O00571)
[12] = molecular target: T1, ATP-dependent 6-phosphofructokinase, platelet type (Homo sapiens, UniProt Q01813)
T1 sequence (Q01813 whole entry): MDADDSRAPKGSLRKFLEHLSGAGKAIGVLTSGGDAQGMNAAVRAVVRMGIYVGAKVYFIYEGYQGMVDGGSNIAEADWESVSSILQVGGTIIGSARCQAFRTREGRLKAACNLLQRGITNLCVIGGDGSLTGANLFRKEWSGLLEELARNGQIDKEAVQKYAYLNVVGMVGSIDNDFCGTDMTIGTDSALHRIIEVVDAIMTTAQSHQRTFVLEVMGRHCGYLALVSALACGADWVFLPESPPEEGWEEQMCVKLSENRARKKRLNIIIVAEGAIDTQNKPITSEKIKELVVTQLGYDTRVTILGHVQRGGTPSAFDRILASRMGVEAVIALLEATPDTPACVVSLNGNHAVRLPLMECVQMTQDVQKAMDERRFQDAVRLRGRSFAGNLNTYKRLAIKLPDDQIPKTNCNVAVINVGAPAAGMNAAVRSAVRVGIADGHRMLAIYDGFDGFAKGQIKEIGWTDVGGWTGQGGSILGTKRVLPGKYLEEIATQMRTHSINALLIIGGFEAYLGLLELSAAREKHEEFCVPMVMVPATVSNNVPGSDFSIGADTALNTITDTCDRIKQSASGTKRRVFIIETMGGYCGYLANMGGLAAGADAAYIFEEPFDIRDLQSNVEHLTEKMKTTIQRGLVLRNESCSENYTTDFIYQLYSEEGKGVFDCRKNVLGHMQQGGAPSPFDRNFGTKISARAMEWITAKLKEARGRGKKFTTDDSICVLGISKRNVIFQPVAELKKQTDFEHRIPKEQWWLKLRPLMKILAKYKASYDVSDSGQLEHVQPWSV

[13] = molecular target: T2, Structural maintenance of chromosomes protein 1A (Homo sapiens, UniProt Q14683)
T2 sequence (Q14683 whole entry): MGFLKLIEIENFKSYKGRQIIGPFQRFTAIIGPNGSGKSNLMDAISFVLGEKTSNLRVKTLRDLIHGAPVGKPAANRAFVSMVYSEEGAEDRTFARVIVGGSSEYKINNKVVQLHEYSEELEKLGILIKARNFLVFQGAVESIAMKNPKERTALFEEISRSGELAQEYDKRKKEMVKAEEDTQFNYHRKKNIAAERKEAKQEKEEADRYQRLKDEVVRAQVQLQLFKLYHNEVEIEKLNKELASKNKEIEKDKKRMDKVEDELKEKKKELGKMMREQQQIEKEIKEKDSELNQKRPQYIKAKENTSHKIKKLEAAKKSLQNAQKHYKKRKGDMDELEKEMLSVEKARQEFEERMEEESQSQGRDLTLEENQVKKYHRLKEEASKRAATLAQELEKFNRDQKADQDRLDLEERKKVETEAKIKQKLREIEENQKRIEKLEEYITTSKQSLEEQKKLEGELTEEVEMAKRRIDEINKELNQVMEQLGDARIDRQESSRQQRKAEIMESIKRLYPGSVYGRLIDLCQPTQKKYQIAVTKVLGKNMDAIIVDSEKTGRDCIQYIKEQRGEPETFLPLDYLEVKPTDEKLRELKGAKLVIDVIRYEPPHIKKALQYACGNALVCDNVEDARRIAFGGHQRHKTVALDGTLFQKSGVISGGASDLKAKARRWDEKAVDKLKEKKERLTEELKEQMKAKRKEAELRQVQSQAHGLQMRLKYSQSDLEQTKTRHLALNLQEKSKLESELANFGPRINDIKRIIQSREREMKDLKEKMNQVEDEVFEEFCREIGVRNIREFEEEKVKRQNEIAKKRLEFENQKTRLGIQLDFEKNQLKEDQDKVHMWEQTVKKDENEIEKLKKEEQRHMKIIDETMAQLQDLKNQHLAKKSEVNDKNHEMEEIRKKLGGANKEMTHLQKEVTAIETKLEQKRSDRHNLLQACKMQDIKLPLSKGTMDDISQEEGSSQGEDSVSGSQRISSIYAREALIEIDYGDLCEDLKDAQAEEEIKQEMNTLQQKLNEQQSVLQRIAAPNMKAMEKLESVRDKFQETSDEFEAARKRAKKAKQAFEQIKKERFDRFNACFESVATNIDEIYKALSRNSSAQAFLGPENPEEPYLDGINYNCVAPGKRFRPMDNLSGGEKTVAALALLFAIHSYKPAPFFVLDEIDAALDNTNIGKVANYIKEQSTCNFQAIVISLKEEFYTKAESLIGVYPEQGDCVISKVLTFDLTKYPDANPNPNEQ
Further: in the data inactive means no Kd found up to 30 µM.

Ras-related protein Rab-6A, sequence (P20340 whole entry): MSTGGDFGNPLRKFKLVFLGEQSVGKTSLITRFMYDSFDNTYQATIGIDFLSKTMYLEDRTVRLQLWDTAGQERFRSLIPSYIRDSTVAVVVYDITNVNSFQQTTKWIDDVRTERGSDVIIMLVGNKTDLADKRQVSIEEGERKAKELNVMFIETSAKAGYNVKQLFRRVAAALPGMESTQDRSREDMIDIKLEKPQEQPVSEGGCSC
Serine/threonine-protein kinase SIK2, sequence (Q9H0K1 whole entry): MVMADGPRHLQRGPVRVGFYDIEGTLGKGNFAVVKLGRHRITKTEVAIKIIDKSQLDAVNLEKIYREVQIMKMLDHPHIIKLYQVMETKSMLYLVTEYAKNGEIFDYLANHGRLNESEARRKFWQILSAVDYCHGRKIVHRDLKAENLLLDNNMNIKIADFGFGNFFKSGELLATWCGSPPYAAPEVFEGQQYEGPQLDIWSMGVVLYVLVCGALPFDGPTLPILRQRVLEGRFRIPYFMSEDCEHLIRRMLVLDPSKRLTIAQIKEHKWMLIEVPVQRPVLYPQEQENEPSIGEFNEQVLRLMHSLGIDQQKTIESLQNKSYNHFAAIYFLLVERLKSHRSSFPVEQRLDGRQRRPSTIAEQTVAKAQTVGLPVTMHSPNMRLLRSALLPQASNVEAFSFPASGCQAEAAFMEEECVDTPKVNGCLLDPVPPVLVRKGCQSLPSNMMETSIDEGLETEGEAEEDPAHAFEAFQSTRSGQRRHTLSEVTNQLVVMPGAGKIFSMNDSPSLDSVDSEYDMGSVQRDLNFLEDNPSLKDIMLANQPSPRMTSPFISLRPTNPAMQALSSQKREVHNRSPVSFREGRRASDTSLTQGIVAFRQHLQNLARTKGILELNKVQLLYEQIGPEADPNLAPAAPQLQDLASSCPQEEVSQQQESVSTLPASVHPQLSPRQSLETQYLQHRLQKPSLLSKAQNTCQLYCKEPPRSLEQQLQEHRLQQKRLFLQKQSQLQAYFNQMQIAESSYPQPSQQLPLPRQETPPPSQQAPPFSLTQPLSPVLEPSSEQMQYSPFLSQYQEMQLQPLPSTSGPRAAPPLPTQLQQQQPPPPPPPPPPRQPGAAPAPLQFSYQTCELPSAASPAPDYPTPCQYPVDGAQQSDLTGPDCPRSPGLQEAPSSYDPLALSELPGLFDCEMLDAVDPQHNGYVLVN
Glycogen synthase kinase-3 beta, sequence (P49841 whole entry): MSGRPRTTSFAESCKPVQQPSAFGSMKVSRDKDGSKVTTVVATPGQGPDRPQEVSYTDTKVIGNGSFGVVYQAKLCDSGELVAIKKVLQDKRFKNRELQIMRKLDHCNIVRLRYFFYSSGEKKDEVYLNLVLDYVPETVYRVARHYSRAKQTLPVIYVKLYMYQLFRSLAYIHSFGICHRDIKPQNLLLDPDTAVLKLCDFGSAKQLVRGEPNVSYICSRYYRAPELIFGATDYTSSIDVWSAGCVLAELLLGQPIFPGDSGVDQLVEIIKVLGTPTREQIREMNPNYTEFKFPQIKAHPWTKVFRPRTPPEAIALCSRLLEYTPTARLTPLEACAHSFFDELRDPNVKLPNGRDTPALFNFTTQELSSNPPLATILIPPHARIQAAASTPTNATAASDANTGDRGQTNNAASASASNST
Myosin light chain kinase, smooth muscle, sequence (Q15746 whole entry): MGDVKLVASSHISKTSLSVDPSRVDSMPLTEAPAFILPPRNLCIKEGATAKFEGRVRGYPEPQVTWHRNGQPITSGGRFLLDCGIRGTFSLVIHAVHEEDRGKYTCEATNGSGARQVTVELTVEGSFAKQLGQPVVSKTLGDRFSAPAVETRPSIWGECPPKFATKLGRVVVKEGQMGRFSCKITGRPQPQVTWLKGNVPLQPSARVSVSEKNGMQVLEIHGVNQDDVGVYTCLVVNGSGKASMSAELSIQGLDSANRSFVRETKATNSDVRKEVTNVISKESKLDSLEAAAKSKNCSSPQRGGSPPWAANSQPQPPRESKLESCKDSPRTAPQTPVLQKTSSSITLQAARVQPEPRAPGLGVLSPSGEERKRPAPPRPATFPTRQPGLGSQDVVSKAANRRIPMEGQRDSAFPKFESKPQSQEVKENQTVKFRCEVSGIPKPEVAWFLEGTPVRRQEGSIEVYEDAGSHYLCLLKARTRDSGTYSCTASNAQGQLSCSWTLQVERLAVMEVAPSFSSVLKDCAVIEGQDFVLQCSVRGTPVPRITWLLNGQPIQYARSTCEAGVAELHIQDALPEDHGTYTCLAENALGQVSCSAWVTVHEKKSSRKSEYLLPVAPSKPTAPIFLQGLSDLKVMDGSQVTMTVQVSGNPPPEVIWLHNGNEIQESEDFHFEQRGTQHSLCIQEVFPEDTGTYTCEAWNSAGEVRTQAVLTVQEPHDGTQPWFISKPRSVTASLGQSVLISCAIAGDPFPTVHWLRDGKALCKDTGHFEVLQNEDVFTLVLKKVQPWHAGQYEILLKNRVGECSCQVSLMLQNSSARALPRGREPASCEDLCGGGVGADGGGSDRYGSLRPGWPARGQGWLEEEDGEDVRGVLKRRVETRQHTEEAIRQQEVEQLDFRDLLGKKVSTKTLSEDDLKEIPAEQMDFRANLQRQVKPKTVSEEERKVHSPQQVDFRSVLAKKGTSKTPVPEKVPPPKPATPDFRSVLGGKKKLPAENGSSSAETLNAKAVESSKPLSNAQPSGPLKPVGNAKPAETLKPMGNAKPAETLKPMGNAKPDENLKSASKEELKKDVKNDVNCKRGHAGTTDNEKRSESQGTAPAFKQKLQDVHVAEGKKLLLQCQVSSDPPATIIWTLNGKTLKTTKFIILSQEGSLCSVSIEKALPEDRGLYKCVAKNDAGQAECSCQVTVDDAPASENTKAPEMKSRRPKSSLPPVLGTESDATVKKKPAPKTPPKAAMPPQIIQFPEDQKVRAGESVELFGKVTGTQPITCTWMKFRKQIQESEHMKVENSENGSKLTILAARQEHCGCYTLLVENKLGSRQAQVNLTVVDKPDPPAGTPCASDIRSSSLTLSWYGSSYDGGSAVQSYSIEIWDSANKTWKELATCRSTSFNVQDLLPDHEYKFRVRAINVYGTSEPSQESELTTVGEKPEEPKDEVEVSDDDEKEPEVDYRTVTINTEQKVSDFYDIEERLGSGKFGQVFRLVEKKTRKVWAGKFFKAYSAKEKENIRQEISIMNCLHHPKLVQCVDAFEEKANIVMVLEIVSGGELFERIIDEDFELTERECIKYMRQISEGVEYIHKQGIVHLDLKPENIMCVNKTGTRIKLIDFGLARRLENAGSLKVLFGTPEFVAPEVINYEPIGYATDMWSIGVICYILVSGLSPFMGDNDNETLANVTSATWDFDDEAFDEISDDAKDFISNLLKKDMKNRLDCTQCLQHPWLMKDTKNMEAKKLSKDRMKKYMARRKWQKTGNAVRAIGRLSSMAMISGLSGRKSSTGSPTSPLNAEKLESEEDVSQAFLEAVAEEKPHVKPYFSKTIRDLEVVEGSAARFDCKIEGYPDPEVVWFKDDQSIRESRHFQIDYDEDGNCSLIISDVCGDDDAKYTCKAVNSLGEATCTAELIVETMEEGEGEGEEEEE
ATP-dependent RNA helicase DDX3X, sequence (O00571 whole entry): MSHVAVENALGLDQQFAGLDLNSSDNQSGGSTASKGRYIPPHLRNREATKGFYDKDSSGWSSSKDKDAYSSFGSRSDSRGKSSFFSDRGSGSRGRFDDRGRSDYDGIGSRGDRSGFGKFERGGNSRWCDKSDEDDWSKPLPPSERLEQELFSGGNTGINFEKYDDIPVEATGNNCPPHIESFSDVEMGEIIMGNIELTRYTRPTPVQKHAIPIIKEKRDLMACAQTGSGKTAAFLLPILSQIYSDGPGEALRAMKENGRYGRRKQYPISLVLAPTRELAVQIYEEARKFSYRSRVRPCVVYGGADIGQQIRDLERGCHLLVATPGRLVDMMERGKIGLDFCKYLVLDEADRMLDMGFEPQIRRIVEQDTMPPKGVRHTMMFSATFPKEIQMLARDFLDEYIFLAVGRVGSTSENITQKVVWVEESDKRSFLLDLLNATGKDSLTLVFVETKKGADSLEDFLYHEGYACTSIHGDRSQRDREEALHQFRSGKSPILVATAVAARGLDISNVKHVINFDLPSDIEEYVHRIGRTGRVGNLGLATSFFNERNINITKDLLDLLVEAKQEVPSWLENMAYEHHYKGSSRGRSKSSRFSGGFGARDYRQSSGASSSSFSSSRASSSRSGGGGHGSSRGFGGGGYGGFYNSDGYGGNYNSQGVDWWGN
Casein kinase I isoform delta, sequence (P48730 whole entry, canonical isoform): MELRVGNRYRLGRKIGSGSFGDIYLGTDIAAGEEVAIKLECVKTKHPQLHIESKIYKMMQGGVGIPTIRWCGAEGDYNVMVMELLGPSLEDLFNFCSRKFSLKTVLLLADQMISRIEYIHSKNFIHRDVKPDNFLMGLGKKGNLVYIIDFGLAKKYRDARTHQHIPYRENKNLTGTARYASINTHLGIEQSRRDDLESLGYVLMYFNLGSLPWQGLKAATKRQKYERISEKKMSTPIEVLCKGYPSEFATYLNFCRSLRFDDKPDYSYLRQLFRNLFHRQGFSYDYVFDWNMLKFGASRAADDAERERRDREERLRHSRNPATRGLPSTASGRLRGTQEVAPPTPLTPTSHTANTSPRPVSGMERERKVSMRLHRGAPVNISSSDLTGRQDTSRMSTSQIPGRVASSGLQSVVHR
S-adenosylmethionine synthase isoform type-2, sequence (P31153 whole entry, canonical isoform): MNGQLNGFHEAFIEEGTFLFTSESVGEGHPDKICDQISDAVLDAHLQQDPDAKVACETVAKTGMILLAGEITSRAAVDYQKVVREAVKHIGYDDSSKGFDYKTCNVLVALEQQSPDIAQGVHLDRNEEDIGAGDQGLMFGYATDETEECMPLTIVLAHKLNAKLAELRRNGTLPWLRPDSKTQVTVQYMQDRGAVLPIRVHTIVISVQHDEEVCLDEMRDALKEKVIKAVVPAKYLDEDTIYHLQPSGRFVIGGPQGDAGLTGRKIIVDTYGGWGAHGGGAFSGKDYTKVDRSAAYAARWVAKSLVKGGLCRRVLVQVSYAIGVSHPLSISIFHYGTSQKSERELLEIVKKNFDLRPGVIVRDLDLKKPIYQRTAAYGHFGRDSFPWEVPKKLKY

Compound	Kd [1]	Kd [2]	Kd [3]	Kd [4]	Kd [5]	Kd [6]	Kd [7]	Kd [8]	Kd [9]	Kd [10]	Kd [11]	Kd [12]	Kd [13]
CC[C@H](Nc1ncnc2[nH]cnc12)c1nc2cccc(F)c2c(=O)n1-c1ccccc1 [IDELALISIB]	> 30 µM (inactive)	> 30 µM (inactive)	> 30 µM (inactive)	> 30 µM (inactive)	> 30 µM (inactive)	> 30 µM (inactive)	> 30 µM (inactive)	> 30 µM (inactive)	> 30 µM (inactive)	> 30 µM (inactive)	> 30 µM (inactive)	> 30 µM (inactive)	> 30 µM (inactive)
COCCNCc1ccc(-c2cc3nccc(Oc4ccc(NC(=S)NC(=O)Cc5ccc(F)cc5)cc4F)c3s2)nc1 [GLESATINIB]	> 30 µM (inactive)	> 30 µM (inactive)	> 30 µM (inactive)	> 30 µM (inactive)	> 30 µM (inactive)	> 30 µM (inactive)	> 30 µM (inactive)	> 30 µM (inactive)	> 30 µM (inactive)	> 30 µM (inactive)	> 30 µM (inactive)	> 30 µM (inactive)	> 30 µM (inactive)
Cc1cc(-c2cc(O)ccc2Cl)cc2nnc(Nc3ccc(OCCN4CCCC4)cc3)nc12	> 30 µM (inactive)	> 30 µM (inactive)	> 30 µM (inactive)	> 30 µM (inactive)	> 30 µM (inactive)	> 30 µM (inactive)	0.0007 µM (active)	0.002 µM (active)	> 30 µM (inactive)	> 30 µM (inactive)	> 30 µM (inactive)	> 30 µM (inactive)	> 30 µM (inactive)
O=C(c1ccc(F)c(F)c1Nc1ccc(I)cc1F)N1CC(O)([C@@H]2CCCCN2)C1 [COBIMETINIB]	> 30 µM (inactive)	> 30 µM (inactive)	> 30 µM (inactive)	> 30 µM (inactive)	> 30 µM (inactive)	> 30 µM (inactive)	> 30 µM (inactive)	> 30 µM (inactive)	> 30 µM (inactive)	> 30 µM (inactive)	> 30 µM (inactive)	> 30 µM (inactive)	> 30 µM (inactive)
CC[C@@H]1C(=O)N(C)c2cnc(Nc3ccc(C(=O)N[C@H]4CC[C@H](N5CCN(CC6CC6)CC5)CC4)cc3OC)nc2N1C(C)C [VOLASERTIB]	> 30 µM (inactive)	> 30 µM (inactive)	> 30 µM (inactive)	> 30 µM (inactive)	> 30 µM (inactive)	> 30 µM (inactive)	> 30 µM (inactive)	> 30 µM (inactive)	> 30 µM (inactive)	> 30 µM (inactive)	> 30 µM (inactive)	> 30 µM (inactive)	> 30 µM (inactive)
CO[C@H]1C[C@@H]2CC[C@@H](C)[C@@](O)(O2)C(=O)C(=O)N2CCCC[C@H]2C(=O)O[C@H]([C@H](C)C[C@@H]2CC[C@@H](OCCO)[C@H](OC)C2)CC(=O)[C@H](C)/C=C(\C)[C@@H](O)[C@@H](OC)C(=O)[C@H](C)C[C@H](C)/C=C/C=C/C=C/1C [EVEROLIMUS]	> 30 µM (inactive)	> 30 µM (inactive)	> 30 µM (inactive)	> 30 µM (inactive)	> 30 µM (inactive)	> 30 µM (inactive)	> 30 µM (inactive)	> 30 µM (inactive)	> 30 µM (inactive)	> 30 µM (inactive)	> 30 µM (inactive)	> 30 µM (inactive)	> 30 µM (inactive)

The next lines start with the values.

Kd [1]	Kd [2]	Kd [3]	Kd [4]	Kd [5]	Kd [6]	Kd [7]	Kd [8]	Kd [9]	Kd [10]	Kd [11]	Kd [12]	Kd [13]	Compound
> 30 µM (inactive)	> 30 µM (inactive)	> 30 µM (inactive)	> 30 µM (inactive)	> 30 µM (inactive)	> 30 µM (inactive)	> 30 µM (inactive)	> 30 µM (inactive)	> 30 µM (inactive)	> 30 µM (inactive)	> 30 µM (inactive)	> 30 µM (inactive)	> 30 µM (inactive)	COc1cc(OC)c(/C=C/S(=O)(=O)Cc2ccc(OC)c(NCC(=O)O)c2)c(OC)c1 [RIGOSERTIB]
> 30 µM (inactive)	> 30 µM (inactive)	> 30 µM (inactive)	> 30 µM (inactive)	> 30 µM (inactive)	> 30 µM (inactive)	> 30 µM (inactive)	> 30 µM (inactive)	> 30 µM (inactive)	> 30 µM (inactive)	> 30 µM (inactive)	> 30 µM (inactive)	> 30 µM (inactive)	C[C@@H](c1ccc2nccn2c1)n1nnc2ncc(-c3cnn(C)c3)nc21 [SAVOLITINIB]
> 30 µM (inactive)	> 30 µM (inactive)	0.247 µM (active)	> 30 µM (inactive)	0.915 µM (active)	> 30 µM (inactive)	> 30 µM (inactive)	> 30 µM (inactive)	0.425 µM (active)	> 30 µM (inactive)	> 30 µM (inactive)	> 30 µM (inactive)	> 30 µM (inactive)	COC(=O)N[C@@H](C)CNc1nccc(-c2cn(C(C)C)nc2-c2cc(Cl)cc(NS(C)(=O)=O)c2F)n1 [ENCORAFENIB]
> 30 µM (inactive)	> 30 µM (inactive)	> 30 µM (inactive)	> 30 µM (inactive)	> 30 µM (inactive)	> 30 µM (inactive)	> 30 µM (inactive)	> 30 µM (inactive)	> 30 µM (inactive)	> 30 µM (inactive)	> 30 µM (inactive)	> 30 µM (inactive)	> 30 µM (inactive)	N[C@@H]1CCCN(c2c(/C=C3\SC(=O)NC3=O)cccc2-c2ccccc2)C1
> 30 µM (inactive)	> 30 µM (inactive)	> 30 µM (inactive)	> 30 µM (inactive)	> 30 µM (inactive)	> 30 µM (inactive)	> 30 µM (inactive)	> 30 µM (inactive)	> 30 µM (inactive)	> 30 µM (inactive)	> 30 µM (inactive)	> 30 µM (inactive)	> 30 µM (inactive)	CNC(=O)CN1CCC(Oc2cc3c(Nc4cccc(Cl)c4F)ncnc3cc2OC)CC1 [SAPITINIB]
> 30 µM (inactive)	> 30 µM (inactive)	> 30 µM (inactive)	> 30 µM (inactive)	> 30 µM (inactive)	> 30 µM (inactive)	> 30 µM (inactive)	> 30 µM (inactive)	> 30 µM (inactive)	> 30 µM (inactive)	> 30 µM (inactive)	> 30 µM (inactive)	> 30 µM (inactive)	Cn1ncc(Cl)c1-c1cc(C(=O)N[C@H](CN)Cc2cccc(F)c2)sc1Cl [AFURESERTIB]
